Measured values reported in patent US20240217989A1, “Heteroaryl Fluoroalkenes As DGK Inhibitors” (Incyte Corporation, priority 2022, published 2024).

What was measured:
DGKα = target: T1, DGKα (Homo sapiens, UniProt P23743); assay: In vitro DGKα inhibition assay (ADP-Glo); format: biochemical; details: His-tagged human recombinant enzyme; 0.1 nM DGKα, 50 μM ATP, 20 μM DLG; 90 minute incubation; ADP-Glo luminescence
T1 construct: His; purchased Signal Chem D21-10BH
Experimental: (§1) The DGKα and DGKζ biochemical reactions were performed using His-tagged human recombinant enzymes (Signal Chem, DGKα, #D21-10BH; DGKζ, #D30-10H)) and DLG (Dilauroyl-sn-glycerol) lipid substrate (Signal Chem, #D430-59). ADP-Glo assay was performed using ADP-Glo™ kinase Assay kit (Promega, #V9104). The reactions were carried out in assay buffer containing 40 mM Tris, pH 7.5, 0.1% CHAPS, 0.1% Prionex, 40 mM NaCl, 5 mM MgCl2, 1 mM CaCl2, and 1 mM DTT. DGKα reactions contained 0.1 nM DGKα, 50 μM ATP, and 20 μM DLG. And DGKζ reactions contained 0.4 nM DGKζ, 30 μM ATP, and 20 μM DLG. For compound inhibition studies, 40 nL test compound in DMSO was added to wells of white polystyrene plates in 384-well (Greiner, #784075) or 1536-well format (Greiner, #782075). Compounds were added with top concentration of 2 mM with 11 point, 3-fold dilution series. Enzyme solution (contains 2× DGK enzyme concentration in 1× assay buffer) was added to the plate in 2 μL/well volume, followed by 2 μL/well of substrate solution (contains 2× concentration of ATP and DLG substrate in 1× assay buffer). Plates were then centrifuged for 1 min at 1200 RPM and sealed or lidded. For 4 μL reaction volume, test compounds were therefore diluted 100× to final top concentration of 20 μM. After 90 minute incubation, reactions were quenched by addition of 2 μL/well Promega ADP-Glo Reagent, followed by centrifugation and lidding. After 60 min incubation, 2 μL/well Promega Kinase Detection Reagent was added, plates centrifuged, and incubated for 30 min. Plates were then read using Luminescence method on BMG PHERAstar FSX plate reader. Percent inhibition was calculated and IC50s were determined using 4-parameter fit in Genedata Screener. Labcyte Echo acoustic dispenser was used for compound addition, and Formulatrix Tempest liquid handler was used for all reagent dispenses.

DGKζ = DGKζ (Homo sapiens, UniProt Q13574); assay: In vitro DGKζ inhibition assay (ADP-Glo); format: biochemical; details: His-tagged human recombinant enzyme; 0.4 nM DGKζ, 30 μM ATP, 20 μM DLG; 90 minute incubation; ADP-Glo luminescence
Sequence of DGKζ (Q13574 whole entry): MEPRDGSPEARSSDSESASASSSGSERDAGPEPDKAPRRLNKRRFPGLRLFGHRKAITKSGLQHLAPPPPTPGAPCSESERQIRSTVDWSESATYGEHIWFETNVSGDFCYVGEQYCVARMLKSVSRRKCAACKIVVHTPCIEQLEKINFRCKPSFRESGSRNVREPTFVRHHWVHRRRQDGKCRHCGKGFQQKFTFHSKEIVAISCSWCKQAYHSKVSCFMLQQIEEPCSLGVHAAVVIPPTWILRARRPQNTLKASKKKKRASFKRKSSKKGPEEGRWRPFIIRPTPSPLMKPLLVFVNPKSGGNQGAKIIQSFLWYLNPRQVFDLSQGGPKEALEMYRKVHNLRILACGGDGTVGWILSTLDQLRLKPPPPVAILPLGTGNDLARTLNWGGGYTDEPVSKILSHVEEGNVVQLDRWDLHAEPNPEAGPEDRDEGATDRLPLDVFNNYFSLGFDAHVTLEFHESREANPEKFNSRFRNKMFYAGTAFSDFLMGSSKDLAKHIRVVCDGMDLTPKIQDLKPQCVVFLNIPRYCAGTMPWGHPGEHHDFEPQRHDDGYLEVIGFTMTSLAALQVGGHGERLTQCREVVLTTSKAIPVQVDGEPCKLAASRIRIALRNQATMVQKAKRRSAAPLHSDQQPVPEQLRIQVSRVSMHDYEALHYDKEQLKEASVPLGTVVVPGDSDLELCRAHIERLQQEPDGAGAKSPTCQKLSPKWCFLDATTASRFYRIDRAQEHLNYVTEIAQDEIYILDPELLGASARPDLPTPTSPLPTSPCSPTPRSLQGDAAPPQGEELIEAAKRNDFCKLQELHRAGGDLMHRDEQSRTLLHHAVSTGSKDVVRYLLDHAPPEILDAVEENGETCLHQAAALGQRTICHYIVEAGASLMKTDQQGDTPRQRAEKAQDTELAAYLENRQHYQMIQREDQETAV
Experimental: as §1

T1 sequence (P23743 whole entry): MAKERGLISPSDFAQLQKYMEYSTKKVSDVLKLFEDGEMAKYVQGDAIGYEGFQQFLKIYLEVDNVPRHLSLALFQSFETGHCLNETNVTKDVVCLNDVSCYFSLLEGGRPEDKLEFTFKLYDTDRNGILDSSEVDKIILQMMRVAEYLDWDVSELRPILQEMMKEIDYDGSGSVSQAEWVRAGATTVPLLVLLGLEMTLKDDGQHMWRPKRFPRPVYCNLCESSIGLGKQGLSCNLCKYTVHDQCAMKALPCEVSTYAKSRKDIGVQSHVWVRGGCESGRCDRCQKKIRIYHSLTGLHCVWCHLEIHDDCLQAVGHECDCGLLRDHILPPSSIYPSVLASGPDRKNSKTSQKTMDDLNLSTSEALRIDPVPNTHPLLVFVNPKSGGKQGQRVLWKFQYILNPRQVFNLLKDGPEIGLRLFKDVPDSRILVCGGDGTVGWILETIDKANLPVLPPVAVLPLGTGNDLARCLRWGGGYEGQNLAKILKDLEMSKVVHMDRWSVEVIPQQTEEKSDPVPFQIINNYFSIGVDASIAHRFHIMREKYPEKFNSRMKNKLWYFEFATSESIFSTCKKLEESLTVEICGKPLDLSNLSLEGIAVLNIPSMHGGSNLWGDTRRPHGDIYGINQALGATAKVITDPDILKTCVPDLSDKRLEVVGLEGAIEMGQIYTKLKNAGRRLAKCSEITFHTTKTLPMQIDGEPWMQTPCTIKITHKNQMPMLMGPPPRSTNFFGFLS

SMILES	IC50 (DGKα) [nM]	IC50 (DGKζ) [nM]
NC[C@@H]1CCCN(c2c(/C=C(\F)c3cn4ccnc4c(N4CC(F)(F)C4)n3)ccc(Oc3ccccc3F)c2C(F)(F)F)C1 [Example 2, (S,Z)-(1-(6-(2-(8-(3,3-Difluoroazetidin-1-yl)imidazo[1,2-a]pyrazin-6-yl)-2-fluorovinyl)-3-(2-fluorophenoxy)-2-(trifluoromethyl)phenyl)piperidin-3-yl)methanamine]	≤ 20	≤ 20
NC[C@@H]1CCCN(c2c(/C=C(\F)c3cncc(-c4ccns4)n3)ccc(Oc3ccccc3F)c2C(F)(F)F)C1 [Example 4, (S,Z)-(1-(6-(2-Fluoro-2-(6-(isothiazol-5-yl)pyrazin-2-yl)vinyl)-3-(2-fluorophenoxy)-2-(trifluoromethyl)phenyl)piperidin-3-yl)methanamine]		≤ 20
CN(CCCN)c1c(/C=C(\F)c2cccc(-c3ccnnc3)n2)ccc(Oc2ccccc2)c1C(F)(F)F [Example 5, (Z)-N1-(6-(2-Fluoro-2-(6-(pyridazin-4-yl)pyridin-2-yl)vinyl)-3-phenoxy-2-(trifluoromethyl)phenyl)-N1-methylpropane-1,3-diamine]	≤ 20	20 to 200
COc1cc(F)ccc1Oc1ccc(/C=C(\F)c2nccc(-c3ccnnc3)n2)c(N2CCC[C@@H](CN)C2)c1Cl [Example 6, (S,Z)-(1-(2-Chloro-6-(2-fluoro-2-(4-(pyridazin-4-yl)pyrimidin-2-yl)vinyl)-3-(4-fluoro-2-methoxyphenoxy)phenyl)piperidin-3-yl)methanamine]	≤ 20	≤ 20
COc1cc(F)ccc1Oc1ccc(/C=C(\F)c2nncc(N3CCC(F)(F)C3)n2)c(N2CCC[C@@H](CN)C2)c1Cl [Example 8, (S,Z)-(1-(2-Chloro-6-(2-(5-(3,3-difluoropyrrolidin-1-yl)-1,2,4-triazin-3-yl)-2-fluorovinyl)-3-(4-fluoro-2-methoxyphenoxy)phenyl)piperidin-3-yl)methanamine]	≤ 20	≤ 20
NC[C@H]1CCCN1c1c(/C=C(\F)c2nccc(-c3ccnnc3)n2)ccc(Oc2ccccc2)c1Cl [Example 13, (R,Z)-(1-(2-Chloro-6-(2-fluoro-2-(4-(pyridazin-4-yl)pyrimidin-2-yl)vinyl)-3-phenoxyphenyl)pyrrolidin-2-yl)methanamine]	≤ 20	≤ 20
CCN1CCC2(CC1)CN(c1c(/C=C(\F)c3cncc(-c4ccnnc4)n3)ccc(OC3CC3)c1C(F)(F)F)CCO2 [Example 14, (Z)-4-(3-Cyclopropoxy-6-(2-fluoro-2-(6-(pyridazin-4-yl)pyrazin-2-yl)vinyl)-2-(trifluoromethyl)phenyl)-9-ethyl-1-oxa-4,9-diazaspiro[5.5]undecane]	20 to 200	20 to 200
CCN1CCC2(CCCN(c3c(/C=C(\F)c4cncc(N5CC(F)(F)C5)n4)ccc(Oc4ccccc4)c3C(F)(F)F)C2)CC1 [Example 16, (Z)-2-(6-(2-(6-(3,3-Difluoroazetidin-1-yl)pyrazin-2-yl)-2-fluorovinyl)-3-phenoxy-2-(trifluoromethyl)phenyl)-9-ethyl-2,9-diazaspiro[5.5]undecane]	20 to 200	≤ 20
[2H]c1c([2H])c([2H])c(Oc2ccc(/C=C(\F)c3cncc(N4CC(F)(F)C4)n3)c(N3CCCC4(CCN(CC5CC5)CC4)C3)c2C(F)(F)F)c([2H])c1[2H] [Example 17, (Z)-9-(Cyclopropylmethyl)-2-(6-(2-(6-(3,3-difluoroazetidin-1-yl)pyrazin-2-yl)-2-fluorovinyl)-3-(phenoxy-d5)-2-(trifluoromethyl)phenyl)-2,9-diazaspiro[5.5]undecane]	≤ 20	≤ 20
F/C(=C\c1ccc(Oc2ccccc2)c(C(F)(F)F)c1N1CCCC2(CCN(CC3CC3)CC2)C1)c1cncc(N2CCC(F)(F)C2)n1 [Example 19, (Z)-9-(Cyclopropylmethyl)-2-(6-(2-(6-(3,3-difluoropyrrolidin-1-yl)pyrazin-2-yl)-2-fluorovinyl)-3-phenoxy-2-(trifluoromethyl)phenyl)-2,9-diazaspiro[5.5]undecane]	≤ 20	≤ 20
CCN1CCC2(CCCN(c3c(/C=C(\F)c4cncc(N5CCC(F)(F)C5)n4)ccc(Oc4ccccc4)c3C(F)(F)F)C2)CC1 [Example 20, (Z)-2-(6-(2-(6-(3,3-Difluoropyrrolidin-1-yl)pyrazin-2-yl)-2-fluorovinyl)-3-phenoxy-2-(trifluoromethyl)phenyl)-9-ethyl-2,9-diazaspiro[5.5]undecane]	≤ 20	≤ 20

Continued, values first:

IC50 (DGKα) [nM]	IC50 (DGKζ) [nM]	SMILES
20 to 200	20 to 200	NC[C@@H]1CCCN(c2c(/C=C(\F)c3cc4nccnc4c(N4CC(F)(F)C4)n3)ccc(Oc3ccccc3F)c2C(F)(F)F)C1 [Example 1, (S,Z)-(1-(6-(2-(5-(3,3-Difluoroazetidin-1-yl)pyrido[3,4-b]pyrazin-7-yl)-2-fluorovinyl)-3-(2-fluorophenoxy)-2-(trifluoromethyl)phenyl)piperidin-3-yl)methanamine]
≤ 20	≤ 20	N#Cc1ncc(N2CC(F)(F)C2)nc1/C(F)=C/c1ccc(Oc2ccccc2F)c(C(F)(F)F)c1N1CCC[C@@H](CN)C1 [Example 3, (S,Z)-3-(2-(2-(3-(Aminomethyl)piperidin-1-yl)-4-(2-fluorophenoxy)-3-(trifluoromethyl)phenyl)-1-fluorovinyl)-5-(3,3-difluoroazetidin-1-yl)pyrazine-2-carbonitrile]
≤ 20	≤ 20	COc1cc(F)ccc1Oc1ccc(/C=C(\F)c2ccnc(-c3ccnnc3)n2)c(N2CCC[C@@H](CN)C2)c1Cl [Example 7, (S,Z)-(1-(2-Chloro-6-(2-fluoro-2-(2-(pyridazin-4-yl)pyrimidin-4-yl)vinyl)-3-(4-fluoro-2-methoxyphenoxy)phenyl)piperidin-3-yl)methanamine]
≤ 20	≤ 20	F/C(=C\c1ccc(Oc2ccccc2)c(C(F)(F)F)c1N1CCOC2(CCNCC2)C1)c1cncc(-c2ccnnc2)n1 [Example 9, (Z)-4-(6-(2-Fluoro-2-(6-(pyridazin-4-yl)pyrazin-2-yl)vinyl)-3-phenoxy-2-(trifluoromethyl)phenyl)-1-oxa-4,9-diazaspiro[5.5]undecane]
≤ 20	≤ 20	F/C(=C\c1ccc(Oc2ccccc2)c(C(F)(F)F)c1N1CCOC2(CCN(CC3CC3)CC2)C1)c1cncc(-c2ccnnc2)n1 [Example 10, (Z)-9-(Cyclopropylmethyl)-4-(6-(2-fluoro-2-(6-(pyridazin-4-yl)pyrazin-2-yl)vinyl)-3-phenoxy-2-(trifluoromethyl)phenyl)-1-oxa-4,9-diazaspiro[5.5]undecane]
20 to 200	≤ 20	COCCN1CCC2(CC1)CN(c1c(/C=C(\F)c3cncc(-c4ccnnc4)n3)ccc(Oc3ccccc3)c1C(F)(F)F)CCO2 [Example 11, (Z)-4-(6-(2-Fluoro-2-(6-(pyridazin-4-yl)pyrazin-2-yl)vinyl)-3-phenoxy-2-(trifluoromethyl)phenyl)-9-(2-methoxyethyl)-1-oxa-4,9-diazaspiro[5.5]undecane]
	≤ 20	NC[C@H]1CCCN1c1c(/C=C(\F)c2cncc(-c3ccnnc3)n2)ccc(Oc2ccccc2)c1Cl [Example 12, (R,Z)-(1-(2-Chloro-6-(2-fluoro-2-(6-(pyridazin-4-yl)pyrazin-2-yl)vinyl)-3-phenoxyphenyl)pyrrolidin-2-yl)methanamine]
≤ 20	≤ 20	F/C(=C\c1ccc(Oc2ccccc2)c(C(F)(F)F)c1N1CCCC2(CCN(CC3CC3)CC2)C1)c1cncc(N2CC(F)(F)C2)n1 [Example 15, (Z)-9-(Cyclopropylmethyl)-2-(6-(2-(6-(3,3-difluoroazetidin-1-yl)pyrazin-2-yl)-2-fluorovinyl)-3-phenoxy-2-(trifluoromethyl)phenyl)-2,9-diazaspiro[5.5]undecane]
≤ 20	≤ 20	[2H]c1c([2H])c([2H])c(Oc2ccc(/C=C(\F)c3cncc(N4CC(F)(F)C4)n3)c(N3CCCC4(CCN(CC)CC4)C3)c2C(F)(F)F)c([2H])c1[2H] [Example 18, (Z)-2-(6-(2-(6-(3,3-Difluoroazetidin-1-yl)pyrazin-2-yl)-2-fluorovinyl)-3-(phenoxy-d5)-2-(trifluoromethyl)phenyl)-9-ethyl-2,9-diazaspiro[5.5]undecane]
≤ 20	≤ 20	[2H]c1c([2H])c([2H])c(Oc2ccc(/C=C(\F)c3cncc(N4CCC(F)(F)C4)n3)c(N3CCCC4(CCN(CC5CC5)CC4)C3)c2C(F)(F)F)c([2H])c1[2H] [Example 21, (Z)-9-(Cyclopropylmethyl)-2-(6-(2-(6-(3,3-difluoropyrrolidin-1-yl)pyrazin-2-yl)-2-fluorovinyl)-3-(phenoxy-ds)-2-(trifluoromethyl)phenyl)-2,9-diazaspiro[5.5]undecane]
